One may read the AC50 as the concentration giving half of the maximal activity seen.

The subject of one test is Plasmodium falciparum Dd2 asexual blood stage parasites. As to the kind of experiment: microbe, parasite or virus in culture. On the set-up: species or system Plasmodium falciparum Dd2 in human erythrocytes; single determination (one 11-point concentration-response curve). The conditions noted are these: Plasmodium falciparum, DD2, Erythrocyte, 72 h.
As to `O=C(CN(C(=O)c1cccc([N+](=O)[O-])c1)C1CCCCC1)Nc1ccc(Cl)c([N+](=O)[O-])c1` [MLS000560351-01], the AC50 was 13.3 µM. The same measure, in the same setting: then `O=C(c1ccco1)c1cn(CCOc2ccc(F)cc2)c2ccccc12` [NCGC00101884-01], with 6.68 µM; and `CCCCCCSc1ccc([C@@H]2[C@H]3C(=O)N(CC)C(=O)[C@H]3[C@]3(C(=O)OC)CCCCN23)cc1OC` [MLS001362153-01], with 15 µM.

Still in this test, the particulars now being: Plasmodium falciparum, DD2, Erythrocyte, 72 h; read-out: AC50.
For the molecule `COc1ccc(Nc2ccccc2NC(=O)c2ccccc2Br)cc1` [MLS001233685-01], the AC50 amounted to 5.96 µM. For `Cc1ccc(NC(=O)c2c(C)oc3ccc(O)c(CN4CCCCCC4)c23)c(C)c1` [NCGC00115658-01], the AC50 worked out at 4.73 µM.

Regarding `O=C(Nc1ccc2c(N3CCCC3)ncnc2c1)c1ccc(Br)cc1` [NCGC00425477-01], the AC50 stood at 4.73 µM. In the case of `O=c1c([N+](=O)[O-])cccn1Cc1ccc(F)cc1Cl` [MLS000728802-01], the AC50 is 4.73 µM. On the same count and under the same terms, then `COc1cc(C2NCc3ccccc3-n3cccc32)ccc1O` (stereo not drawn) [MLS000047988-01], with 2.66 µM; and `Cc1ccc(C(=O)N/N=C/c2ccc([N+](=O)[O-])s2)cc1` [MLS000519463-01], with 5.96 µM. With `COc1cccc(CC(=O)N2CCCn3nc(C)c(-c4ccccc4OCc4ccccc4)c32)c1` [NCGC00420361-01], the AC50 stood at 9.44 µM. Consider `CCOC(=O)c1ccc(NC2=CC(c3ccc(F)cc3)N(c3ccc(C(=O)OCC)cc3)C2=O)cc1` (stereo not drawn) [NCGC00102598-01], for which the AC50 was found to be 8.41 µM.

Turning to `Cc1nc(-c2cccc(Cl)c2)n(CC(=O)Nc2ccc(C(F)(F)F)cc2)c(=O)c1CCO` [NCGC00471081-01], the AC50 came to 13.3 µM. Consider `CCOC(=O)C1CCN(C(=O)c2cc3c(n2C)CCN(Cc2ccccc2)C3)CC1` [NCGC00430564-01], for which the AC50 was 10.6 µM.

Take `CCCc1nnc(C[C@@H]2C[C@@H](C(C)C)[C@H](CN3CCC[C@H]3CO)C=C2C)o1` [NCGC00392769-01]: the AC50 was 17.2 µM.

`CCOC(=O)C1CCCN(C(=O)c2ccc3c(c2)N(Cc2ccccc2)C(=O)c2ccccc2[S+]3(=O)[O-])C1` (stereo not drawn) [NCGC00109839-01]: the AC50 is 6.68 µM.

For `COc1cc2c(cc1OC1CCCC1)NC(=O)C21CCN(Cc2nccs2)CC1` [NCGC00416850-01], the AC50 is 19.3 µM. On to `C#C[C@H]1C[N@@]2CC[C@H]1C[C@@H]2CNCc1ccc(F)c(F)c1` [NCGC00399053-01], for which the AC50 is 13.7 µM.

With `CCOc1ccc(NC(=O)c2nnn3cc(C)[nH]c(=O)c23)cc1` [NCGC00454245-01], the AC50 was determined as 10.6 µM. Same read-out and setting: then `COc1ccc2cc1Nc1ccc(cc1)C[C@H](NCc1ccc(C)o1)C(=O)N(C)[C@H](C(=O)NCCC(C)C)C2` [NCGC00410286-01], with 5.96 µM; and `CCOC(=O)c1cnn(-c2ccc(C(=O)Nc3ccc(C(C)=O)cc3)cc2)c1N` [NCGC00137680-01], with 4.73 µM; and `CCN(CC)c1cc(CCC(=O)NCCN(C)C2CCCCC2)ccn1` [NCGC00469386-01], with 13.3 µM. Same read-out and setting: then `Cc1ccc(NC(=O)c2cnc(-c3ccccc3)nc2-c2ccncc2)c(Br)c1` [NCGC00426434-01], with 9.44 µM; and `Cc1cc(C)c(CNC(=O)c2cc(-c3ccnn3C)cc3c2OCCN3C(C)C)c(=O)[nH]1` [NCGC00417130-01], with 15.3 µM; and `Cc1noc(C)c1-c1cc2cc(CN(C)C)oc2c(Nc2cccnc2)n1` [NCGC00417472-01], with 12.2 µM. Still for that read-out and setting: then `CCN(CC)C(=O)C[C@@H]1c2nc(NC(=O)c3cccc(F)c3)sc2C[C@@H]2[C@](C)(CO)[C@H](O)CC[C@]21C` [NCGC00394316-01], with 9.44 µM; and `O=C(Nc1ccc(F)cc1)N1CCOc2ccc(CN3CCc4ccccc4C3)cc2C1` [NCGC00471233-01], with 8.41 µM.

In the case of `Cc1cc(C(=O)Nc2cnn(Cc3ccc(Cl)cc3Cl)c2)no1` [MLS000087313-01], the AC50 worked out at 9.44 µM. Turning to `COc1cccc(NC(=O)CN(C)C(=O)c2oc3c(ccc4ccccc43)c2C)c1` [MLS001142056-01], the AC50 was 0.75 µM. For the molecule `O=C1NC2(CCN(C(=O)c3ccc(C(F)(F)F)cc3)CC2)COc2ccccc21` [NCGC00477468-01], the AC50 worked out at 8.41 µM. Still for that read-out and setting: then `COc1ccc(CCNC(=O)Cn2c(-c3cccs3)cc3cc(F)ccc32)cc1OC` [NCGC00111974-01], with 4.73 µM. Still for that read-out and setting: then `Oc1ccccc1-c1cc(C2=CCOCC2)c2cncn2c1` [NCGC00412161-01], with 9.68 µM; and `COc1ccc(N2CCN(Cc3cc4c(cc3O)CCC4)CC2)cc1` [MLS000572034-01], with 16.8 µM. For `Cc1ccc(Cl)cc1N1CCN(C(=O)c2cn(CC(C)C)c(=O)c3c2c2ccccc2n3C)CC1` [NCGC00106023-01], the AC50 was determined as 3.35 µM.

Turning to `COc1ccc(CNC[C@H]2O[C@H](Cc3cc(-c4ccc(OC)cc4)on3)CC[C@@H]2O)cc1` [NCGC00401026-01], the AC50 was found to be 10.6 µM. Consider `Oc1cc(NCc2ccc(F)cc2)cc2cccnc12` [NCGC00183798-01], for which the AC50 is 4.73 µM. Take `O=c1cc(-c2ccccc2)c2ccc3c(c2o1)CN(Cc1ccccc1)CO3` [NCGC00116340-01]: the AC50 came out at 2.66 µM. On the same count and under the same terms, then `Clc1ccc(CN2CCOC[C@H](Oc3ccccc3)C2)cc1` [NCGC00393521-01], with 17.2 µM; and `Cc1ccc(-n2ncc(C(=O)N3CCN(c4cc(Cl)ccc4C)CC3)c2C2CCN(C(=O)OC(C)(C)C)CC2)cc1` [NCGC00126953-01], with 8.41 µM. The same measure, in the same setting: then `COc1ccc2c(c1OC)C(=O)N1N=C(c3ccc(O)cc3)CC21` (stereo not drawn) [MLS000570475-01], with 16.8 µM; and `COc1ccc2cc1Nc1ccc(cc1)C[C@H](NCc1ccc(C)o1)C(=O)N(C)[C@@H](C(=O)NCc1ccccc1)C2` [NCGC00410280-01], with 5.31 µM; and `COc1ccc(-c2csc3ncnc(N4CCN(S(=O)(=O)c5ccc(C(C)=O)cc5)CC4)c23)cc1` [MLS001160708-01], with 4.22 µM. With `CC1C(=O)C(C)C(c2cc(Cl)ccc2O)NC1c1cc(Cl)ccc1O` (stereo not drawn) [MLS001197743-01], the AC50 worked out at 6.68 µM. For `CCC(C)(C)n1nnnc1C(c1cccnc1)N1CCN(c2cccc(C(F)(F)F)c2)CC1` (stereo not drawn) [MLS000122548-01], the AC50 came to 6.68 µM.

For `CCC(=O)N1CCc2cc(Br)cc(S(=O)(=O)C3(C(=O)OC)CC3)c21` [MLS000047144-01], the AC50 is 3.76 µM. Still for that read-out and setting: then `COc1cccc(NC(=O)Cn2cccc2-c2nc(-c3ccc(OC)c(F)c3)no2)c1` [NCGC00445448-01], with 6.68 µM.

Take `Nc1ccc2oc(-c3ccc4[nH]cnc4c3)nc2c1` [MLS000121646-01]: the AC50 came to 13.3 µM. On the same count and under the same terms, then `COc1ccc(Nc2cc(C)nc3nc(C)nn23)cc1Cl` [MLS000116613-01], with 16.8 µM. Take `Cc1ccc(NC(=O)N2CCC(OC3CCN([S+](C)(=O)[O-])CC3)CC2)cc1F` [NCGC00445040-01]: the AC50 stood at 15 µM.

Take `CCCCn1c(NS(=O)(=O)c2ccccc2)c(C(=O)OCC)c2nc3ccccc3nc21` [MLS000589117-01]: the AC50 was found to be 10.6 µM. Still for that read-out and setting: then `O=C1CC(c2ccccc2)N(C(=O)CNC(=O)c2n[nH]c3c2CCc2ccccc2-3)CCCCCCN1` (stereo not drawn) [NCGC00467449-01], with 2.99 µM. Same read-out and setting: then `CC(C)c1ccccc1NC(=O)Cn1cccc1-c1nc(-c2ccccc2)no1` [NCGC00445236-01], with 4.22 µM. As to `Cc1c(O)c(CN(C)C)cc2c1oc(=O)c1ccccc12` [MLS000778334-01], the AC50 stood at 4.22 µM. On the same count and under the same terms, then `O=C1CC2(CCN([S+](=O)([O-])c3cccc(C(F)(F)F)c3)CC2)Oc2ccccc2N1c1ccccc1` [NCGC00478390-01], with 6.68 µM; and `Cc1ccccc1OCCSc1nc2ccc(NC(=O)c3ccccc3)cc2s1` [NCGC00118500-01], with 15 µM. On the same count and under the same terms, then `COc1cncc(Nc2cnc3ccc(-c4ccc(F)cc4)nn23)c1` [NCGC00412595-01], with 3.06 µM. The same measure, in the same setting: then `Cn1cccc1CN1CCCC2(Cc3ccccc3CNC2=O)C1` (stereo not drawn) [NCGC00377565-01], with 13.2 µM. For `C[N+](C)(C)CCN(Cc1ccc(Cl)cc1)c1ccccn1` [MLS000556881-01], the AC50 is 9.44 µM. On the same count and under the same terms, then `O=C(NCc1ccccc1)c1ccccc1OC1CN(Cc2ccc(O)c(F)c2)C1` [NCGC00458090-01], with 15 µM; and `Cc1ccc(NC(=O)CC2SC(NC3CCCCC3)=NC2=O)cc1` (stereo not drawn) [MLS000700518-01], with 11.9 µM; and `C=CC/N=C(\S)N1CCN(c2ccc([N+](=O)[O-])cc2)CC1` [MLS000581348-01], with 4.22 µM. For the molecule `CCCCN1C(=O)C(O)(CC(=O)c2ccc(C(C)(C)C)cc2)c2ccccc21` (stereo not drawn) [NCGC00100209-01], the AC50 came out at 4.73 µM. `Cn1c(SCC(=O)N2c3ccccc3CCc3ccccc32)nnc1-c1cc2ccccc2cc1O` [MLS000553503-01]: the AC50 was 8.41 µM.

For `CCCCN(CCCC)CC(O)Cn1cc(/C=C/C(=O)c2ccccc2)c2ccccc21` (stereo not drawn) [NCGC00114887-01], the AC50 is 1.68 µM.

With `c1ccc(Cn2c(Sc3nnnn3-c3ccccc3)nnc2-c2ccccc2)cc1` [MLS000052243-01], the AC50 amounted to 7.5 µM.

On to `COC(=O)c1ccc(Nc2nnc(-c3ccc(C)c([S+](=O)([O-])N4CCN(C)CC4)c3)c3ccccc23)cc1` [NCGC00099996-01], for which the half-maximal activity concentration (AC50) was determined as 8.41 µM. Take `CCCOc1ccc(-c2nonc2NC(=O)c2cc(OC)c(OC)c(OC)c2)cc1OCCC` [NCGC00116043-01]: the AC50 came out at 5.96 µM. Still for that read-out and setting: then `COc1ncc(-c2cc(C(=O)NCc3c(C)cc(C)[nH]c3=O)c3c(c2)N(C(C)C)CCO3)cn1` [NCGC00416983-01], with 9.44 µM; and `COc1ccc(CN2C[C@H]3CN(Cc4c[nH]c5ccccc45)CCN3C2=O)cc1` [NCGC00392270-01], with 3.85 µM. Still for that read-out and setting: then `COC(=O)C1=C(c2ccc(OC)c(OC)c2)C[C@@H]2CC[C@H]1N2C(=O)NCc1cccc2ccccc12` [MLS002302726-01], with 3.35 µM; and `COc1cccc(-c2cc(C(=O)Nc3cc(Cl)ccc3O)on2)c1` [NCGC00121773-01], with 4.73 µM; and `O=C(CCC1CCN(Cc2cccc3c2OCO3)CC1)NCc1cccc(C(F)(F)F)c1` [NCGC00426823-01], with 3.76 µM.

`CC1=C[C@@H](CNC2CC2)[C@H](C(C)C)C[C@H]1Cc1nnc(-c2ccc(C)cc2)o1` [NCGC00394380-01]: the AC50 was 17.2 µM.

(Values after publication PMC7822874, “Chemoprotective antimalarials identified through quantitative high-throughput screening of Plasmodium blood and liver stage parasites” (Scientific Reports, 2021).)
